Assay results from patent publication US9708314B2, “Heterocyclic amide compound” (NISSAN CHEMICAL INDUSTRIES, LTD., priority 2013, dated 2017).

How the values were obtained:
Assay type in all cases: in vivo
[1] = test system: Echinochloa oryzacola Vasing.; assay: Test Example 1: herbicidal activity, application before weed generation in submerged conditions; details: Application herbicide amount 320 g/ha; Seventeenth Table
In short: (§1)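 Pre-emergence water-surface application under 4 cm flooding, same day as sowing, with rice transplanted at 2.5 leaf stage. Dose given as g/ha. Plants grown at 25° C. to 30° C. and rated three weeks later on a 0 (≤5%) to 5 (≥90%) herbicidal-ratio scale.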

Monochoria vaginalis = assay: as above; details: Application herbicide amount 320 g/ha; Seventeenth Table
In short: as §1

Scirpus juncoides = assay: as above; details: Application herbicide amount 320 g/ha; Seventeenth Table
In short: as §1

Abutilon theophrasti = assay: Test Example 4: herbicidal effect by application to foliage (diluvial soil, plastic box); details: Application herbicide amount 320 g/ha
In short: (§2)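 Seeds sown in sterilized diluvial soil, covered ~1.5 cm, grown 14 days in greenhouse at 25° C. to 30° C. Emulsion formulation diluted in water to set rate (g/ha) and sprayed onto stems and leaves. Effect scored visually 3 weeks later on 0–5 scale (5 = ≥90% herbicidal ratio, 0 = ≤5%).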

Alopecurus myosuroides = assay: as above; details: Application herbicide amount 320 g/ha
In short: as §2

Apera spica-venti. = assay: as above; details: Application herbicide amount 320 g/ha
In short: as §2

Avena fatua = assay: as above; details: Application herbicide amount 320 g/ha
In short: as §2

Chenopodium album = assay: as above; details: Application herbicide amount 320 g/ha
In short: as §2

Digitaria ciliaris = assay: as above; details: Application herbicide amount 320 g/ha
In short: as §2

[2] = test system: Echinochloa crus-galli var. crus-galli; assay: as above; details: Application herbicide amount 320 g/ha
In short: as §2

Galium spurium = assay: as above; details: Application herbicide amount 320 g/ha
In short: as §2

Lolium multiflorum Lam. = assay: as above; details: Application herbicide amount 320 g/ha
In short: as §2

Setaria viridis = assay: as above; details: Application herbicide amount 320 g/ha
In short: as §2

Veronica persica = assay: as above; details: Application herbicide amount 320 g/ha
In short: as §2

Compound	A: Echinochloa oryzicola Vasing. (herbicidal effect grade) [1]	C: Monochoria vaginalis (herbicidal effect grade) (Monochoria vaginalis)	B: Scirpus juncoides (herbicidal effect grade) (Scirpus juncoides)	M (Abutilon theophrasti)	J (Alopecurus myosuroides)	L (Apera spica-venti.)	I (Avena fatua)	O (Chenopodium album)	F (Digitaria ciliaris)	H [2]	Q (Galium spurium)	K (Lolium multiflorum Lam.)	G (Setaria viridis)	R (Veronica persica)
CCC[S+]([O-])c1nnc2c(C(=O)Nc3nnc(C)o3)ccc(C(F)(F)F)n12 (centres unmarked) [1-092]	5 (Herbicidal ratio of 90% or more (almost completely withered))	4 (Herbicidal ratio of 70% or more and less than 90%)	5 (Herbicidal ratio of 90% or more (almost completely withered))	4 (Herbicidal ratio of 70% or more and less than 90%)	1 (Herbicidal ratio of 5% or more and less than 20%)	1 (Herbicidal ratio of 5% or more and less than 20%)	2 (Herbicidal ratio of 20% or more and less than 40%)	5 (Herbicidal ratio of 90% or more (almost completely withered))	5 (Herbicidal ratio of 90% or more (almost completely withered))	5 (Herbicidal ratio of 90% or more (almost completely withered))	3 (Herbicidal ratio of 40% or more and less than 70%)	1 (Herbicidal ratio of 5% or more and less than 20%)	5 (Herbicidal ratio of 90% or more (almost completely withered))	5 (Herbicidal ratio of 90% or more (almost completely withered))
Cc1nnc(NC(=O)c2ccc(C(F)(F)F)n3c(SCC(C)C)nnc23)o1 [1-093]	5 (Herbicidal ratio of 90% or more (almost completely withered))	3 (Herbicidal ratio of 40% or more and less than 70%)	4 (Herbicidal ratio of 70% or more and less than 90%)	4 (Herbicidal ratio of 70% or more and less than 90%)	0 (Herbicidal ratio of 5% or less (almost no effect))	1 (Herbicidal ratio of 5% or more and less than 20%)	1 (Herbicidal ratio of 5% or more and less than 20%)	5 (Herbicidal ratio of 90% or more (almost completely withered))	5 (Herbicidal ratio of 90% or more (almost completely withered))	5 (Herbicidal ratio of 90% or more (almost completely withered))	1 (Herbicidal ratio of 5% or more and less than 20%)	1 (Herbicidal ratio of 5% or more and less than 20%)	3 (Herbicidal ratio of 40% or more and less than 70%)	4 (Herbicidal ratio of 70% or more and less than 90%)
CCC(C)Sc1nnc2c(C(=O)Nc3nnc(C)o3)ccc(C(F)(F)F)n12 (centres unmarked) [1-094]	5 (Herbicidal ratio of 90% or more (almost completely withered))	3 (Herbicidal ratio of 40% or more and less than 70%)	5 (Herbicidal ratio of 90% or more (almost completely withered))	4 (Herbicidal ratio of 70% or more and less than 90%)	1 (Herbicidal ratio of 5% or more and less than 20%)	1 (Herbicidal ratio of 5% or more and less than 20%)	2 (Herbicidal ratio of 20% or more and less than 40%)	5 (Herbicidal ratio of 90% or more (almost completely withered))	5 (Herbicidal ratio of 90% or more (almost completely withered))	5 (Herbicidal ratio of 90% or more (almost completely withered))	0 (Herbicidal ratio of 5% or less (almost no effect))	1 (Herbicidal ratio of 5% or more and less than 20%)	4 (Herbicidal ratio of 70% or more and less than 90%)	4 (Herbicidal ratio of 70% or more and less than 90%)
Cc1nnc(NC(=O)c2ccc(C(F)(F)F)n3c(SC(C)(C)C)nnc23)o1 [1-095]	5 (Herbicidal ratio of 90% or more (almost completely withered))	5 (Herbicidal ratio of 90% or more (almost completely withered))	5 (Herbicidal ratio of 90% or more (almost completely withered))	4 (Herbicidal ratio of 70% or more and less than 90%)	1 (Herbicidal ratio of 5% or more and less than 20%)	1 (Herbicidal ratio of 5% or more and less than 20%)	1 (Herbicidal ratio of 5% or more and less than 20%)	5 (Herbicidal ratio of 90% or more (almost completely withered))	5 (Herbicidal ratio of 90% or more (almost completely withered))	5 (Herbicidal ratio of 90% or more (almost completely withered))	3 (Herbicidal ratio of 40% or more and less than 70%)	2 (Herbicidal ratio of 20% or more and less than 40%)	3 (Herbicidal ratio of 40% or more and less than 70%)	5 (Herbicidal ratio of 90% or more (almost completely withered))
Cc1nnc(NC(=O)c2ccc(C(F)(F)F)n3c(N4CCOCC4)nnc23)o1 [1-096]	5 (Herbicidal ratio of 90% or more (almost completely withered))	4 (Herbicidal ratio of 70% or more and less than 90%)	4 (Herbicidal ratio of 70% or more and less than 90%)	4 (Herbicidal ratio of 70% or more and less than 90%)	1 (Herbicidal ratio of 5% or more and less than 20%)	3 (Herbicidal ratio of 40% or more and less than 70%)	2 (Herbicidal ratio of 20% or more and less than 40%)	5 (Herbicidal ratio of 90% or more (almost completely withered))	5 (Herbicidal ratio of 90% or more (almost completely withered))	5 (Herbicidal ratio of 90% or more (almost completely withered))	4 (Herbicidal ratio of 70% or more and less than 90%)	2 (Herbicidal ratio of 20% or more and less than 40%)	5 (Herbicidal ratio of 90% or more (almost completely withered))	5 (Herbicidal ratio of 90% or more (almost completely withered))
CC(C)c1nnc2c(C(=O)Nc3nnc(C(F)(F)F)o3)ccc(C(F)(F)F)n12 [1-100]	4 (Herbicidal ratio of 70% or more and less than 90%)	3 (Herbicidal ratio of 40% or more and less than 70%)	3 (Herbicidal ratio of 40% or more and less than 70%)	3 (Herbicidal ratio of 40% or more and less than 70%)	0 (Herbicidal ratio of 5% or less (almost no effect))	0 (Herbicidal ratio of 5% or less (almost no effect))	1 (Herbicidal ratio of 5% or more and less than 20%)	5 (Herbicidal ratio of 90% or more (almost completely withered))	3 (Herbicidal ratio of 40% or more and less than 70%)	4 (Herbicidal ratio of 70% or more and less than 90%)	0 (Herbicidal ratio of 5% or less (almost no effect))	0 (Herbicidal ratio of 5% or less (almost no effect))	1 (Herbicidal ratio of 5% or more and less than 20%)	1 (Herbicidal ratio of 5% or more and less than 20%)
COc1cccc(Nc2nnc3c(C(=O)Nc4nnc(C)o4)ccc(C(F)(F)F)n23)n1 [1-102]	3 (Herbicidal ratio of 40% or more and less than 70%)	2 (Herbicidal ratio of 20% or more and less than 40%)	2 (Herbicidal ratio of 20% or more and less than 40%)	3 (Herbicidal ratio of 40% or more and less than 70%)	0 (Herbicidal ratio of 5% or less (almost no effect))	0 (Herbicidal ratio of 5% or less (almost no effect))	0 (Herbicidal ratio of 5% or less (almost no effect))	5 (Herbicidal ratio of 90% or more (almost completely withered))	3 (Herbicidal ratio of 40% or more and less than 70%)	4 (Herbicidal ratio of 70% or more and less than 90%)	2 (Herbicidal ratio of 20% or more and less than 40%)	0 (Herbicidal ratio of 5% or less (almost no effect))	3 (Herbicidal ratio of 40% or more and less than 70%)	4 (Herbicidal ratio of 70% or more and less than 90%)
